Measurements as given in US20090060984A1, “ANIONIC SURFACTANTS LETHAL TO GRAM-POSITIVE BACTERIA” (priority 2007, published 2009).
Several values for one entry are separate records, joined by “and”; a condition that tells them apart may be missing. Equal values may be shown once. Read-outs that look alike come from different tables or passages of the source.

Experiments:
[1] = tested on: Staphylococcus aureus ATCC 6538;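 further: bacterial suspension pipetted onto each coated surface, then recovered in PBS, serially diluted and spread on TSA plates to count viable colonies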
Description: The antimicrobial activities of the coatings on coupons and slides are tested against both Gram-positive (Staphylococcus aureus ATCC 6538) and Gram-negative (Escherichia coli ATCC 11229) bacteria. The following set of steps are executed over a four day period, in order to evaluate the coatings for antimicrobial activity.
(1) Three colonies are picked from a Petri dish that contains refrigerator stock of E. coli and S. aureus. Each of the colonies is placed into a separate test tube of 5 mL of TSB (tryptic soy broth); (2) the TSB cultures are incubated in a heated shaker; the culture is grown overnight at 37° C. while shaking at 175 rpm.
(1) 500 μL (0.5 mL) of FINAL E. coli bacteria are placed onto the center of each sterilized coating (24 hour); the same is done with S. aureus; (2) the coupons/coatings are stored for 24 hours in sealed pan by stacking Petri dishes on top of one another; (3) 200 mL of sterile water is added to the bottom of each pan; each pan is enclosed with clear saran wrap and aluminum foil; the Pyrex pans containing the coatings are incubated at room temperature for 24 hours; all inoculations of the coatings are performed in the same laminar flow hood as where the sterilized slides are placed into sterile Petri dishes; the prepared bacterial suspension (0.5 ml) is directly pipetted onto the coating of the slide; the spreading of the innoculum across the surface of the coating is observed and noted.
(1) 500 μL (0.5 mL) of FINAL E. coli bacteria is placed onto the center of each sterilized coating (0 hour); the same is done with S. aureus; (2) after bacteria are added to the 0 hour coatings, each Petri dish (containing the coating) is submerged with 25 mL of PBS; this immersion stops the viable bacteria from continuing to grow; (3) 100 μL of fluid is removed from coatings dish and placed in the middle of a previously labeled TSA plate; this is done to both agar plates labeled with −1 concentration; before removing the fluid, the surface of the coupon is scratched with a sterile loop to activate movement of bacteria; (4) “hockey sticks” are sterilized with ethanol and flame, to spread solution thoroughly; (5) the concentration of bacteria is diluted by removing 500 μL of the fluid in the coupon dish and placing it into a test tube with 4.5 mL of PBS; this solution is diluted in duplicate by removing 100 μL of the fluid and spreading into TSA plates labeled −2; (6) sterilized “hockey sticks” are used to spread solution thoroughly; (7) 500 μL of fluid from 1st tube prepared in step 5 is removed and placed into 4.5 mL of PBS; this dilution is mixed and 100 μL is removed in duplicate and placed into two new TSA plates labeled −3; (8) sterilized “hockey sticks” are used to spread these dilutions thoroughly; (9) steps 1-8 are repeated for each of the coupons or slides.

[2] = tested on: P. aeruginosa ATCC 15442; settings: for CFU/mL of E. coli at 24 hours / CFU/mL of E. coli at 12 hours: exposed to P. aeruginosa, polyurethane, microscope slides
Description: (§1) Escherichia coli ATCC 11229 (Culti-loops, Remel Europe, Dartford, Kent, UK) and Pseudomonas aeruginosa ATCC 15442 (Cuti-loops, Remel Europe, Dartford, Kent, UK) were selected as model Gram-negative organisms for the challenge testing of the antimicrobial coatings. Each bacterial strain was streaked for isolated colonies on Tryptic Soy Agar (TSA) plates (Difco, Becton Dickinson, Sparks, Md., U.S.A.) and incubated at 37° C. for 12 to 18 hours. Broth cultures were prepared by first picking 1-2 isolated colonies from TSA plates and inoculating 5 mL Tryptic Soy Broth (TSB; Difco, Becton Dickinson, Sparks, Md., U.S.A.) in a 16 mm test tube. This culture was grown in a shaking water bath at 150 RPM for 8 hours at 37° C. After the eight hours, 125 μL of this culture was added to 50 mL of TSB in a side-arm Klett flask and grown for approximately 8 hours in shaking water bath (150 RPM) at 37° C. The bacterial broths were grown to an A590 of 1.2-1.5, which correlated to approximately 10^9 CFU (colony forming units)/mL. 25 mL of this broth were transferred to a sterile 30 mL Oakridge tube and centrifuged at 12,000×g for 10 minutes at 4° C. (Sorval SS34 rotor) to pelletize the bacteria. The bacterial pellet was washed once and resuspended in 25 mL of phosphate buffer solution (PBS; BBL, FTA Hemaglutination Buffer, Becton Dickinson, Sparks, Md., U.S.A.). The suspension was diluted with PBS to achieve the target range of 10^5-10^6 CFU/mL and used to inoculate the slides containing antibacterial coatings.
(§2) The 10% substitution on this weight basis corresponds to substitution of one tenth of the total surfactant weight or to 3% of the total composition weight.
The second set of coatings was made on microscope slides and challenged with E. coli ATCC 11229 and P. aeruginosa ATCC 15442. In these coatings, the gradient levels of incorporated silver were: 0%, 0.02%, 0.05%, 0.1%, 0.2%, 0.5%, 1.0% and 2.0% of the 30% NaAOT control amount. […] These gradients were tested at three inoculation time points, 0 hours, 12 hours, and 24 hours, with the 0% silver and 0 hours slides as controls.
The bacterial cultures were prepared as described in Example 12. Once the slides were inoculated, those assigned to incubate for 12 hours or 24 hours were placed in a humidified chamber by placing the Petri dishes containing the slides on test tubes that had been taped to the bottom of a 9″×13″ Pyrex dish. These test tubes held the Petri dishes just above the bottom of the dish, into which about 500 mL of sterile water was added. The Pyrex dish was also sterilized via UV irradiation (at least 4 minutes of exposure) prior to each challenge to protect against contamination. The dish was then covered with plastic wrap and tin foil and incubated at room temperature (20° C. to 25° C.).
At each time point (0 hours, 12 hours, and 24 hours), 25 mL of sterile PBS was pipetted into the Petri dish completely submerging the glass slide coated with the antimicrobial polymer.

[3] = tested on: E. coli ATCC 11229
Description: as §1
The glass slides are then washed with acetone and water.
as §2
Bacterial cultures as prepared and described in Example 12 are applied to the surfactant polymer coated slides as prepared and described in Example 26. All inoculations are performed in a laminar flow hood. Sterilized slides are placed into a sterile Petri dish. Then 0.5 mL of the prepared bacterial suspensions is pipetted directly onto the slide, which spreads across the surface of the coating but remains on top of the slide.
The surviving bacteria from the exposures described in Example 27 are determined as follows: At each time point, 25 mL of sterile PBS is pipetted into the Petri dish completely submerging the slide, and a sterile plastic inoculating loop is used to release any viable bacteria remaining on the surface of the coating. Samples are plated onto TSA plates, and incubated at 37° C. for at least 24 h. Plates containing between 30 and 300 isolated colonies are counted.

[4] = acetate sprayed with 0.06% w/w AgAOT/isopropanol, 0 h contact time
[5] = acetate sprayed with 0.06% w/w AgAOT/isopropanol, 24 h contact time
[6] = cotton sprayed with 0.06% w/w AgAOT/isopropanol, 0 h contact time
[7] = cotton sprayed with 0.06% w/w AgAOT/isopropanol, 24 h contact time
[8] = linen sprayed with 0.06% w/w AgAOT/isopropanol, 24 h contact time
[9] = metal plate sprayed with 0.06% Ag+ AgAOT solution, 24 h contact time
[10] = polyester sprayed with 0.06% w/w AgAOT/isopropanol, 0 h contact time
[11] = polyester sprayed with 0.06% w/w AgAOT/isopropanol, 24 h contact time
[12] = rayon sprayed with 0.06% w/w AgAOT/isopropanol, 24 h contact time
[13] = silk sprayed with 0.06% w/w AgAOT/isopropanol, 0 h contact time
[14] = silk sprayed with 0.24% w/w AgAOT/isopropanol, 24 h
[15] = vinyl tile sprayed with 0.06% Ag+ AgAOT solution, 24 h contact time
[16] = wall-paper sprayed with 0.06% Ag+ AgAOT solution, 24 h contact time
[17] = 0.061% weight w/w Ag in coating (first column 0.113)
[18] = 0.122% weight w/w Ag in coating (first column 0.226)
[19] = […] weight w/w Ag in coating (first column 0.0574)
[20] = 0.061% weight w/w Ag in coating (first column 0.113), polyurethane, microscope slides
[21] = 0.122% weight w/w Ag in coating (first column 0.226), polyurethane, microscope slides
[22] = 24 hour exposure, polyurethane coated lantern slides
[23] = […] weight w/w Ag in coating (first column 0.0574), polyurethane, microscope slides

`CCCCC(CC)COC(=O)CC(C(=O)OCC(CC)CCCC)S(=O)(=O)[O-].[Ag+]` (stereo not shown) [AgAOT] was tested, and the “S. aureus CFU/mL, Average” value [1, 4] was 0.00E+00 CFU/mL, the “S. aureus CFU/mL, Run #1-#4” value [1, 4] was 0.00E+00 CFU/mL and the “S. aureus CFU/mL, Average” value [1, 5] was 0.00E+00 CFU/mL. The “S. aureus CFU/mL, Run #1-#4” value [1, 5] was 0.00E+00 CFU/mL, the “S. aureus CFU/mL, Average” value [1, 6] was 0.00E+00 CFU/mL and the “S. aureus CFU/mL, Run #1-#4” value [1, 6] was 0.00E+00 CFU/mL. The “S. aureus CFU/mL, Average” value [1, 7] was 0.00E+00 CFU/mL, the “S. aureus CFU/mL, Run #1-#4” value [1, 7] was 0.00E+00 CFU/mL and the “S. aureus CFU/mL, Average” value ([1]; linen sprayed with 0.06% w/w AgAOT/isopropanol, 0 h contact time) was 1.24E+04 CFU/mL. For the same compound, the “S. aureus CFU/mL, Average” value [1, 8] was 0.00E+00 CFU/mL, the “S. aureus CFU/mL, Run #1-#4” value [1, 8] was 0.00E+00 CFU/mL and the “S. aureus CFU/mL, Avg” value ([1]; metal plate sprayed with 0.06% Ag+ AgAOT solution, 0 h contact time) was 3.90E+04 CFU/mL. For the same compound, the “S. aureus CFU/mL, Avg” value [1, 9] was 0.00E+00 CFU/mL, the “S. aureus CFU/mL, Run #1-#2” value [1, 9] was 0.00E+00 CFU/mL and the “S. aureus on sprayed household surfaces” value ([1]; metal plate, wall paper, vinyl tile, 0.06% silver solution, 24 h contact time) was “Complete killing is obtained for each of the surfaces”. For the same compound, the “S. aureus CFU/mL, Average” value [1, 10] was 0.00E+00 CFU/mL, the “S. aureus CFU/mL, Run #1-#4” value [1, 10] was 0.00E+00 CFU/mL and the “S. aureus CFU/mL, Average” value [1, 11] was 0.00E+00 CFU/mL. For the same compound, the “S. aureus CFU/mL, Run #1-#4” value [1, 11] was 0.00E+00 CFU/mL, the “S. aureus CFU/mL, Average” value ([1]; rayon sprayed with 0.06% w/w AgAOT/isopropanol, 0 h contact time) was 1.88E+02 CFU/mL and the “S. aureus CFU/mL, Average” value [1, 12] was 0.00E+00 CFU/mL. For the same compound, the “S. aureus CFU/mL, Run #1-#4” value [1, 12] was 0.00E+00 CFU/mL, the “Inhibition of S. aureus growth” value ([1]; rayon, 0.06% Ag AgAOT/isopropanol, 0 h contact time) was 3 orders of magnitude and the “S. aureus CFU/mL, Average” value [1, 13] was 1.45E+05 CFU/mL. The “S. aureus CFU/mL, Run #1-#2” value [1, 13] was 1.80E+05 CFU/mL and 1.10E+05 CFU/mL, the “S. aureus CFU/mL, Average” value ([1]; silk sprayed with 0.06% w/w AgAOT/isopropanol, 24 h contact time) was 9.13E+03 CFU/mL and the “S. aureus CFU/mL, Average” value ([1]; silk sprayed with 0.24% w/w AgAOT/isopropanol, 0 h) was 1.35E+05 CFU/mL. The “S. aureus CFU/mL, Average” value [1, 14] was 0.00E+00 CFU/mL, the “S. aureus CFU/mL, Run #1-#4” value [1, 14] was 0.00E+00 CFU/mL and the “S. aureus CFU/mL, Avg” value ([1]; vinyl tile sprayed with 0.06% Ag+ AgAOT solution, 0 h contact time) was 1.25E+05 CFU/mL. The “S. aureus CFU/mL, Avg” value [1, 15] was 0.00E+00 CFU/mL, the “S. aureus CFU/mL, Run #1-#2” value [1, 15] was 0.00E+00 CFU/mL and the “S. aureus CFU/mL, Avg” value ([1]; wall-paper sprayed with 0.06% Ag+ AgAOT solution, 0 h contact time) was 9.75E+04 CFU/mL. For the same compound, the “S. aureus CFU/mL, Avg” value [1, 16] was 0.00E+00 CFU/mL, the “S. aureus CFU/mL, Run #1-#2” value [1, 16] was 0.00E+00 CFU/mL and the “Overall silver level effective as bactericide” value (shortened to “Overall silver level effective”) ([2]; 12 hours of exposure) was 0.06 % weight silver relative to coating weight. The “Smallest level examined that appears effective at killing the P. aeruginosa” value ([2]; 24 h exposure) was 0.0012 % weight Ag relative to overall coating weight, the “Overall silver level effective” value ([2]; 24 hours of exposure) was 0.006 % weight silver relative to coating weight and the “CFU/mL of E. coli at 24 hours” value ([2]; 0.0061% weight w/w Ag in coating (first column 0.0113)) was 0, 0, 0 CFU/mL. For the same compound, the “CFU/mL of E. coli at 12 hours” value [2, 17] was 0, 0, 0 CFU/mL, the “CFU/mL of E. coli at 24 hours” value [2, 17] was 0, 0, 0 CFU/mL and the “CFU/mL of E. coli at 12 hours” value [2, 18] was 0, 0, 0 CFU/mL. For the same compound, the “CFU/mL of E. coli at 24 hours” value [2, 18] was 0, 0, 0 CFU/mL, the “CFU/mL of E. coli at 24 hours” value ([2]; […] weight w/w Ag in coating (first column 0.00230)) was 0, 0, 0 CFU/mL and the “CFU/mL of E. coli at 12 hours” value [2, 19] was 0, 0, 0 CFU/mL. The “CFU/mL of E. coli at 24 hours” value [2, 19] was 0, 0, 0 CFU/mL, the “CFU/mL of E. coli at 12 hours” value [3, 20] was 0, 0, 0 CFU/mL and the “CFU/mL of E. coli at 24 hours” value [3, 20] was 0, 0, 0 CFU/mL. The “CFU/mL of E. coli at 12 hours” value [3, 21] was 0, 0, 0 CFU/mL, the “CFU/mL of E. coli at 24 hours” value [3, 21] was 0, 0, 0 CFU/mL and the “CFU/mL of E. coli at 24 hours” value ([3]; 0.5% substituted for sodium salt in coating ([…] weight silver), polyurethane coated lantern slides) was 0; 0 CFU/mL. For the same compound, the “CFU/mL of E. coli at 24 hours” value ([3]; 1.0% substituted for sodium salt in coating (0.061% weight silver), polyurethane coated lantern slides) was 0; 0 CFU/mL, the “CFU/mL of E. coli at 24 hours” value ([3]; 3.0% substituted for sodium salt in coating ([…] weight silver), polyurethane coated lantern slides) was 0; 0 CFU/mL and the “CFU/mL of E. coli at 24 hours” value ([3]; 10.0% substituted for sodium salt in coating (0.61% weight silver), polyurethane coated lantern slides) was 0; 0 CFU/mL. For the same compound, the “Overall silver level effective” value ([3]; 12 hours of exposure) was 0.06 % weight silver relative to coating weight, the “Ag+ level resulting in complete killing of the E. coli” value [3, 22] was ≥ 0.031 % Ag+ relative to coating weig and the “Level of substitution resulting in complete killing of the E. coli” value [3, 22] was ≥ 0.5 % weight relative to the 30% N. For the same compound, the “Overall silver level effective” value ([3]; 24 hours of exposure) was 0.006 % weight silver relative to coating weight, the “CFU/mL of E. coli at 24 hours” value ([3]; […] weight w/w Ag in coating (first column 0.0226), polyurethane, microscope slides) was 0, 0, 0 CFU/mL and the “CFU/mL of E. coli at 12 hours” value [3, 23] was 0, 0, 0 CFU/mL. For the same compound, the “CFU/mL of E. coli at 24 hours” value [3, 23] was 0, 0, 0 CFU/mL.
